Where two headings read alike, the source gives them in different places.
Experiments:
[1] = test system: HIV-1 E138K mutant strain; assay: Anti-HIV-1 mutant strain E138K in MT-4 cells, MTT method; type: cell-based; settings: Human immunodeficiency virus 1, MT4, read-out: EC50 E138K
Procedure: (§2) Evaluation of the anti-HIV activity and cytotoxicity of the target compounds was performed by utilizing the MTT method in MT-4 cells described previously [37]. Stock solutions (10 × final concentration) of test compounds were added in 25 μL volumes to two series of triplicate wells to allow simultaneous evaluation of their effects on mock- and HIV-infected cells at the beginning of each experiment. Serial five-fold dilutions of test compounds were prepared directly in flat-bottomed 96-well microtiter trays by adding 100 μL medium to the 25 μL stock solution and transferring 25 μL of this solution to another well that contained 100 μL medium using a Biomek 3000 robot (Beckman Instruments, Fullerton, CA). Each sample includes untreated control HIV- and mock-infected cell samples. WT HIV-1 strain (IIIB), HIV-1 drug-resistant strains including L100I, K103N, Y181C, Y188L, E138K, K103N/Y181C, F227L/V106A or HIV-2 strain (ROD) stock (50 μL) at 100–300 CCID50 (50% cell culture infectious dose) or culture medium was added to either the infected or mock-infected wells of the microtiter tray. Mock-infected cells were used to evaluate the effect of test compounds on uninfected cells to evaluate their cytotoxicity. Exponentially growing MT-4 cells were centrifuged for 5 min at 1000 rpm, and the supernatant was discarded. […] After infection five days, the viability of mock- and HIV-infected cells was examined spectrophotometrically by the MTT assay.

[2] = test system: HIV-1 K103N mutant strain; assay: microbe, parasite or virus in culture; type: cell-based; settings: for EC50: Human immunodeficiency virus 1, MT4, read-out: EC50 K103N; for Resistance Folds K103N: RF, EC50 (K103N)/EC50 (WT)
Procedure: (§1) Stock solutions (10 × final concentration) of test compounds were added in 25 μL volumes to two series of triplicate wells to allow simultaneous evaluation of their effects on mock- and HIV-infected cells at the beginning of each experiment.

[3] = test system: HIV-1 Y181C mutant strain; assay: Anti-HIV-1 mutant strain Y181C in MT-4 cells, MTT method; type: cell-based; settings: Human immunodeficiency virus 1, MT4, read-out: EC50 Y181C
Procedure: as §2

WT HIV-1 strain (IIIB) = assay: Anti-HIV-1 (IIIB, wild-type) activity in MT-4 cells, MTT method; type: cell-based; settings: for SI (IIIB): selectivity index, CC50/EC50 (IIIB)
Procedure: as §1

HIV-2 strain (ROD) = assay: Anti-HIV-2 (ROD) activity in MT-4 cells, MTT method; type: cell-based
Procedure: as §1

[4] = test system: HIV-1 RES056 (K103N/Y181C) mutant strain; assay: Anti-HIV-1 double mutant RES056 in MT-4 cells, MTT method; type: cell-based; settings: Human immunodeficiency virus 1, MT4, read-out: EC50 RES056
Procedure: as §2

[5] = test system: HIV-1 Y188L mutant strain; assay: Anti-HIV-1 mutant strain Y188L in MT-4 cells, MTT method; type: cell-based; settings: Human immunodeficiency virus 1, MT4, read-out: EC50 Y188L
Procedure: as §2

HIV-1 WT RT = target: T1, HIV-1 WT RT (Human immunodeficiency virus type 1 group M subtype B, UniProt P04585); assay: HIV-1 RT inhibition assay (Roche kit, ELISA); type: biochemical
T1 construct: The RT is a heterodimer consisting of two subunits, p66 (560 residues) and p51 (440 residues); purchased Roche
Procedure: An HIV-1 reverse transcriptase (RT) assay kit produced by Roche was used for the RT inhibition assay. All the reagents for performing the RT reaction came from the kit, and the ELSIA procedures for RT inhibition assay were conducted following the description in the kit protocol [38]. […] Then used, a washing buffer was used to remove the unbound dNTPs, and an anti-DIG-POD working solution was added. […] The unbound anti-DIG-PODs were removed, and the peroxidesubstrate (ABST) solution was added to the MTPs. A colored reaction proceeds during the cleavage of the substrate catalyzed by POD. […] The percentage inhibitory activity of RT inhibitors was calculated by the formula given below: % Inhibition = [O.D. value with RT but without inhibitors − O.D. value with RT and inhibitors]/[O.D. value with RT and inhibitors − O.D. value without RT and inhibitors].

[6] = test system: HIV-1 L100I mutant strain; assay: Anti-HIV-1 mutant strain L100I in MT-4 cells, MTT method; type: cell-based; settings: Human immunodeficiency virus 1, MT4, read-out: EC50 L100I
Procedure: as §2

[7] = test system: HIV-1 F227L + V106A mutant strain; assay: Anti-HIV-1 double mutant F227L + V106A in MT-4 cells, MTT method; type: cell-based; settings: Human immunodeficiency virus 1, MT4, read-out: EC50 F227L + V106A
Procedure: as §2

in vitro = settings: human
Procedure: as §1

[8] = Human immunodeficiency virus 1, IIIB, MT4, read-out: EC50 IIIB, MT-4 cells, WT HIV-1 IIIB, MTT
[9] = Human immunodeficiency virus 2, MT4, read-out: EC50 ROD
[10] = Human immunodeficiency virus 1, MT4, MT-4 cells, WT HIV-1 IIIB, MTT, read-out: EC50 IIIB

Structure (SMILES) | EC50 [1] | EC50 [2] | Resistance Folds K103N [2] | EC50 [3] | melting point | EC50 (WT HIV-1 strain (IIIB); [8]) | SI (IIIB) (WT HIV-1 strain (IIIB)) | EC50 (HIV-2 strain (ROD); [9]) | EC50 [4] | EC50 [5] | IC50 (HIV-1 WT RT) | EC50 [6] | EC50 [7] | CC50 at 5 days (in vitro) | EC50 (WT HIV-1 strain (IIIB); [10]) | EC50 (HIV-2 strain (ROD); Human immunodeficiency virus 2, MT4, MT-4 cells, HIV-2 ROD, MTT, read-out: EC50 ROD)
Cc1cc(COc2cncc(C#N)c2)cc(C)c1Oc1ccnc(Nc2ccc(C#N)cc2)n1 [TF13, 5-((4-((2-((4-cyanophenyl)amino)pyrimidin-4-yl)oxy)-3,5-dimethylbenzyl)oxy) nicotinonitrile] | 57.7 ± 11.6 nM | 28 ± 2.5 nM | 1.47 | 265 ± 24.6 nM | 195 to 198 °C | 19.4 ± 3.4 nM | 246.4 | > 4770 nM | 1180 ± 68.2 nM | 1050 ± 66.8 nM | 59 ± 1 nM | 125 ± 5.9 nM | 1650 ± 19.9 nM | 4770 ± 1560 nM |  | 
Cc1cn([C@H]2C[C@H](N=[N+]=[N-])[C@@H](CO)O2)c(=O)[nH]c1=O [AZT, Zidovudine, reference compound] | 30.1 ± 3 nM | 22.8 ± 1.1 nM |  | 25.1 ± 3 nM |  |  | >274.0 |  | 25.1 ± 1.8 nM | 19.4 ± 2.9 nM |  | 10 ± 1.2 nM | 14.8 ± 1.1 nM | > 7480 nM | 27.3 ± 3.5 nM | 23.3 ± 2.1 nM
Cc1ccnc2c1NC(=O)c1cccnc1N2C1CC1 [NVP, nevirapine, reference compound] | 149 ± 12 nM | 7500 ± 867 nM |  | 10100 nM |  |  |  |  | > 15000 nM | ≥ 13800 nM |  | 1860 ± 365 nM | > 15000 nM | > 15000 nM | 123 ± 7.3 nM | 
COc1cccc(OCc2cc(C)c(Oc3ccnc(Nc4ccc(C#N)cc4)n3)c(C)c2)c1 [TF6, 4-((4-(4-((3-methoxyphenoxy)methyl)-2,6-dimethylphenoxy)pyrimidin-2-yl)amino)benzonitrile] | 149.7 ± 0.7 nM | 91.2 ± 14.4 nM | 2.60 | 387 ± 87.4 nM | 149 to 152 °C | 35.3 ± 4.1 nM | 195.6 | > 6900 nM | > 6900 nM | 1390 ± 83.6 nM | 52 ± 4 nM | 156 ± 16.8 nM | 1100 ± 281 nM | 6900 ± 249 nM |  | 
Cc1cc(COc2ccccc2)cc(C)c1Oc1ccnc(Nc2ccc(C#N)cc2)n1 [TF1, 4-((4-(2,6-dimethyl-4-(phenoxymethyl)phenoxy)pyrimidin-2-yl)amino) benzonitrile] | 76.5 ± 9.4 nM | 50.7 ± 9.6 nM | 3.00 | 515 ± 60.4 nM | 179 to 182 °C | 17.1 ± 2.3 nM | >17,326.7 | > 296000 nM | 6850 ± 1170 nM | 1520 ± 92.1 nM | 62 nM | 221 ± 53.5 nM | 1710 ± 581 nM | > 296000 nM |  | 
Cc1cc(COc2ccc(C#N)cc2)cc(C)c1Oc1ccnc(Nc2ccc(C#N)cc2)n1 [TF2, 4-((4-(4-((4-cyanophenoxy)methyl)-2,6-dimethylphenoxy)pyrimidin-2-yl)amino) benzonitrile] | 44 ± 2.9 nM | 28.1 ± 7.1 nM | 3.68 | 139 ± 34.9 nM | 202 to 205 °C | 7.6 ± 0.6 nM | >36,610.9 | > 279000 nM | > 279000 nM | 1390 ± 119 nM | 55 ± 1 nM | 117 ± 49.5 nM | 1140 ± 346 nM | > 279000 nM |  | 
Cc1cc(COc2ccc(NC(=O)OC(C)(C)C)cc2)cc(C)c1Oc1ccnc(Nc2ccc(C#N)cc2)n1 [TF16, (4-((4-((2-((4-cyanophenyl)amino)pyrimidin-4-yl)oxy)-3,5-dimethylbenzyl)oxy)phenyl)carbamic acid tert-butyl ester] | 246 ± 30.4 nM | 132 ± 28.4 nM | 2.93 | 1270 ± 154 nM | 184 to 187 °C | 45.3 ± 14.1 nM | 136.7 | > 6200 nM | > 6200 nM | > 6200 nM | 160 ± 1 nM | 715 ± 184 nM | ≥ 1620 nM | 6200 ± 220 nM |  | 
Cc1cc(COc2ccc(N)cc2)cc(C)c1Oc1ccnc(Nc2ccc(C#N)cc2)n1 [TF17, 4-((4-(4-((4-Aminophenoxy)methyl)-2,6-dimethylphenoxy)pyrimidin-2-yl)amino) benzonitrile] | 152 ± 10.3 nM | 65.3 ± 7.6 nM | 1.97 | 552 ± 62.5 nM |  | 32.5 ± 1.7 nM |  | > 5490 nM |  | 905 ± 147 nM | 57 ± 3 nM | 226 ± 28.9 nM | 747 ± 72.2 nM | 5490 ± 328 nM |  | 
Cc1cc(COc2cccc(CO)c2)cc(C)c1Oc1ccnc(Nc2ccc(C#N)cc2)n1 [TF9, 4-((4-(4-((3-(hydroxymethyl)phenoxy)methyl)-2,6-dimethylphenoxy)pyrimidin-2-yl)amino)benzonitrile] | 147 ± 12 nM | 120 ± 18.2 nM | 3.87 | 499 ± 44.6 nM | 147 to 150 °C | 30.5 ± 4 nM | 113.3 | > 3460 nM | 1590 ± 87.5 nM | 1100 ± 95.7 nM | 53 nM | 308 ± 46.3 nM | 1000 ± 29.6 nM | 3460 ± 375 nM |  | 
COc1ccccc1OCc1cc(C)c(Oc2ccnc(Nc3ccc(C#N)cc3)n2)c(C)c1 [TF7, 4-((4-(4-((2-methoxyphenoxy)methyl)-2,6-dimethylphenoxy)pyrimidin-2-yl)amino)benzonitrile] | 181 ± 10.7 nM | 164 ± 5.5 nM | 6.31 | 791 ± 62.9 nM |  | 25.5 ± 8.4 nM |  | > 8150 nM | > 8150 nM | > 8150 nM | 73 ± 3 nM | 452 ± 70.5 nM | 1220 ± 179 nM | 8150 ± 548 nM |  | 
COc1ccc(OCc2cc(C)c(Oc3ccnc(Nc4ccc(C#N)cc4)n3)c(C)c2)cc1 [TF5, 4-((4-(4-((4-methoxyphenoxy)methyl)-2,6-dimethylphenoxy)pyrimidin-2-yl)amino)benzonitrile] | 65.3 ± 10 nM | 44.5 ± 4.9 nM | 2.00 | 268 ± 28.9 nM |  | 21.7 ± 3.6 nM |  | > 254000 nM | > 254000 nM | 964 ± 98.1 nM | 54 ± 4 nM | 126 ± 12.6 nM | 1410 ± 570 nM | 254000 nM |  | 
O=C1Nc2ccc(Cl)cc2[C@@](C#CC2CC2)(C(F)(F)F)O1 [EFV, efavirenz, reference compound] | 4.4 ± 0.3 nM | 95.1 ± 9.1 nM |  | 5.5 ± 0.5 nM |  |  |  |  | 184 ± 22 nM | 240 ± 30.4 nM |  | 35 ± 4.7 nM | 201 ± 17.3 nM | > 6340 nM | 2.4 ± 0.3 nM | 
Cc1cc(COc2cccc(C#N)c2)cc(C)c1Oc1ccnc(Nc2ccc(C#N)cc2)n1 [TF3, 3-((4-((2-((4-cyanophenyl)amino)pyrimidin-4-yl)oxy)-3,5-dimethylbenzyl)oxy) benzonitrile] | 87.7 ± 8.5 nM | 48.4 ± 7.5 nM | 1.92 | 245 ± 39.6 nM |  | 24.5 ± 4.1 nM |  | > 5520 nM | 1540 ± 102 nM | 895 ± 90.2 nM | 60 nM | 116 ± 5.8 nM | 755 ± 156 nM | 5520 ± 297 nM |  | 
Cc1cc(COc2ccccc2C#N)cc(C)c1Oc1ccnc(Nc2ccc(C#N)cc2)n1 [TF4, 2-((4-((2-((4-cyanophenyl)amino)pyrimidin-4-yl)oxy)-3,5-dimethylbenzyl)oxy) benzonitrile] | 103 ± 6.8 nM | 75.9 ± 13.9 nM | 9.74 | 482 ± 42.6 nM |  | 7.8 ± 1 nM |  | > 5290 nM | > 5300 nM | > 5300 nM | 50 ± 2 nM | 315 ± 30.7 nM | 1280 ± 303 nM | 5290 ± 356 nM |  | 
Cc1cc(COc2ccc([N+](=O)[O-])cc2)cc(C)c1Oc1ccnc(Nc2ccc(C#N)cc2)n1 [TF15, 4-((4-(2,6-Dimethyl-4-((4-nitrophenoxy)methyl)phenoxy)pyrimidin-2-yl)amino) benzonitrile] | 50 ± 4.4 nM | 46.3 ± 9.7 nM | 2.00 | 196 ± 25.4 nM |  | 23.1 ± 3.1 nM |  | > 215000 nM | 1800 ± 68.5 nM | 1080 ± 99.4 nM | 63 ± 1 nM | 105 ± 15.2 nM | 1660 ± 448 nM | 215000 nM |  | 
